Like-named read-outs stand apart in the source and are kept apart here.
Columns and labels:
HT-29 cells = test: TNF-induced necroptosis (TNFα/Smac mimetic/z-VAD), cell viability by ATP levels; type: cell-based, human
Protocol: Necroptosis is tightly regulated by RIP kinases including RIPK1 and RIPK3. To develop new necroptosis inhibitors, we screened a small-molecule library of around 240 potential kinase inhibitors that were designed with novel structures to affect the ATP-binding pocket of protein kinases. Human colon cancer HT-29 cells were treated with these compounds for […], followed by treatment with necroptotic stimuli (TNFα, Smac mimetic, and z-VAD) that are known to activate TNF-mediated necroptosis. After 48 h, cell viability was analyzed by monitoring ATP levels.
Fig. 1 PK6 efficiently blocks TNF-α induced necroptosis in both human and mouse cells. a HT-29 cells cultured in 96-well plates were pretreated with the indicated compounds (10 μM) from a library consisting of ~240 compounds that we designed with novel structures for 1 h and subsequently treated with 40 ng/ml TNF-α (T), 100 nM Smac mimetic (S), and the caspase inhibitor 20 μM z-VAD(Z) for 48 h. Cell viability was assessed by measuring ATP levels. Data are represented as the mean ± standard deviation of duplicates. b Chemical structure of PK6. c Dose response curve and EC50 ± SD value for PK6 in TNF-α induced necroptosis in HT-29 cells. Cells were pretreated with indicated concentrations of PK6 for 1 h prior to the treatment with T (40 ng/ml), S (100 nM), and Z (20 μM) for 48 h. Cell viability was assessed by measuring ATP levels. d U937 cells were pretreated with indicated concentrations of PK6 for 1 h followed by the treatment with T (40 ng/ml), S (100 nM), and Z (20 μM) for 24 h. e MEF cells were pretreated with indicated concentrations of PK6 for 1 h followed by the treatment with T (40 ng/ml), S (100 nM), and Z (20 μM) for 24 h. f L929 cells were pretreated with indicated concentrations of PK6 for 1 h prior to the treatment with S (100 nM) and Z (20 μM) for 24 h.
Fig. 2 Chemical optimization of PK6 leads to improvements in anti-necroptotic activity. a, b The effects of the indicated compounds on cell viability were examined in HT-29 cells (a) and L929 cells (b). HT-29 cells were treated as indicate for 48 h and L929 cells for 24 h. Cell viability was assessed by measuring ATP levels. Data are represented as the mean ± standard deviation of triplicates. c Structure and EC50 ± SD value of each compound are shown in the table. EC50 values are the average of at least two independent determinations. d Lead optimization of PK6 TEXT PRINTED IN THE PICTURE: (c) PK6: EC50(nM) HT-29: 1200±53; EC50(nM) L929: 760±26 | (c) PK67: EC50(nM) HT-29: 250±6.3; EC50(nM) L929: 130±6.8 | (c) PK81: EC50(nM) HT-29: 120±7.6; EC50(nM) L929: 20±0.98 | (c) PK84: EC50(nM) HT-29: 97±6.7; EC50(nM) L929: 45±2.1 | (c) PK93: EC50(nM) HT-29: 130±36; EC50(nM) L929: 30±7.4 | (c) PK86: EC50(nM) HT-29: 73±3.9; EC50(nM) L929: 15±1.0 | (c) PK68: EC50(nM) HT-29: 23±1.4; EC50(nM) L929: 13±0.85
(§1) The cell viability was analyzed by using the CellTiter-Glo Luminescent Cell Viability Assay kit following the manufacturer’s instructions (Promega). Luminescence was measured with SpectraMax i3x (Molecular Devices).

[1] = system: rat bone marrow-derived macrophages; test: TNFR- and TLR-mediated necroptosis; type: cell-based; conditions: rat BMDM; PK6 10 μM, PK68 100 nM; 24–30 h
Description: (§2) In addition to TNF-induced necroptosis, it is known that TLR3 or TLR4 activation can also trigger necroptosis. We further evaluated the effects of PK6 and PK68 on TLR3- and TLR4-mediated necroptosis induced by poly(I:C)/z-VAD and LPS/z-VAD, respectively. […] To investigate the molecular mechanism of PK series-mediated necroptosis inhibition, we examined the effects of these compounds on the major steps of necroptotic signaling, including activation of RIPK1, RIPK3, and MLKL. […] It has been shown previously that RIPK3 activation leads to the formation of RIPK3 puncta during necroptosis.
(§3) Fig. 3 PK6 and PK68 block cellular activation of RIPK1, RIPK3, and MLKL upon necroptotic stimuli. a, b Bone marrow-derived macrophages from C57BL/6 mice or rat were pretreated with DMSO, PK6(10 μM), or PK68 (100 nM) for 1 h and subsequently treated with indicated stimuli for 24–30 h. Cell viability was determined by measuring ATP levels. L, LPS (20 ng/ml); P, poly(I:C) (50 μg/ml); S (100 nM); Z (10 μM). […] The distribution of RIPK3 was detected by immunofluorescence. *P < 0.05. **P < 0.01. ***P < 0.001 […]
as §1

[2] = system: mouse bone marrow-derived macrophages; test: TLR3- and TLR4-mediated necroptosis (poly(I:C)/z-VAD, LPS/z-VAD); type: cell-based; conditions: mouse BMDM; PK6 10 μM, PK68 100 nM; 24–30 h
Description: as §2, §3, §1

Row | Structure (SMILES) | EC50 (HT-29 cells; Homo sapiens, HT-29, 48 h, T 40 ng/ml, S 100 nM, Z 20 μM, 48 h, read-out: EC50, TNF-induced necroptosis) | TNFR- and TLR-mediated necroptosis [1] | TLR3- and TLR4-mediated necroptosis [2] | EC50 (HT-29 cells; Homo sapiens, HT-29, 48 h, T/S/Z 48 h, read-out: EC50(nM) HT-29) | EC50 (HT-29 cells; T/S/Z 48 h, read-out: EC50(nM) HT-29)
1 | CC(=O)Nc1nc2ccc(-c3cnc(Cl)c(NC(=O)Cc4ccccc4)c3)cc2s1 [PK6, N-(5-(2-acetamidobenzo[d]thiazol-6-yl)-2-chloropyridin-3-yl)-2-phenylacetamide] | ~1200 nM | showed inhibitory effects | significantly blocked |  | 
2 | CC(=O)Nc1nc2ccc(-c3cnc(C)c(NC(=O)OC4CCCCC4)c3)cc2s1 [PK68, cyclohexyl (5-(2-acetamidobenzo[d]thiazol-6-yl)-2-methylpyridin-3-yl)carbamate] |  | showed inhibitory effects | significantly blocked | 23 nM | ~20 nM

— publication PMC6591251, “Discovery of potent necroptosis inhibitors targeting RIPK1 kinase activity for the treatment of inflammatory disorder and cancer metastasis” (Cell Death & Disease, 2019)
